Data reported in ChEMBL document CHEMBL5532714, “Discovery of Kebanmycins with Antibacterial and Cytotoxic Activities from the Mangrove-Derived Streptomyces sp. SCSIO 40068” (J Nat Prod, 2024).
≈ marks a conversion by molar mass, not a printed value. Where a name gives a salt, the structure may show the parent alone.

How the values were obtained:
Staphylococcus aureus [1] = test: Antibacterial activity against methicillin-resistant Staphylococcus aureus shhs-A1 assessed as bacterial growth inhibition incubated for 16 hrs by broth microdilution method; type: functional
Acinetobacter baumannii = test: Antibacterial activity against Acinetobacter baumannii 19606 assessed as bacterial growth inhibition incubated for 16 hrs by broth microdilution method; type: functional
Bacillus subtilis = test: Antibacterial activity against Bacillus subtilis 1064 assessed as bacterial growth inhibition incubated for 16 hrs by broth microdilution method; type: functional
[2] = (§1) Cytotoxicity against human MCF7 cells assessed as cell growth inhibition; type: toxicity, cell-based; conditions: MCF7 cells
Staphylococcus aureus [3] = test: Antibacterial activity against methicillin-resistant Staphylococcus aureus 669 assessed as bacterial growth inhibition incubated for 16 hrs by broth microdilution method; type: functional
[4] = (§2) Cytotoxicity against human HepG2 cells assessed as cell growth inhibition; type: toxicity, cell-based; conditions: HepG2 cells
Vibrio alginolyticus = test: Antibacterial activity against Vibrio alginolyticus ATCC 13214 assessed as bacterial growth inhibition incubated for 16 hrs by broth microdilution method; type: functional
Staphylococcus aureus [5] = test: Antibacterial activity against methicillin-resistant Staphylococcus aureus 991 assessed as bacterial growth inhibition incubated for 16 hrs by broth microdilution method; type: functional
Staphylococcus aureus [6] = test: Antibacterial activity against Staphylococcus aureus ATCC 29213 assessed as bacterial growth inhibition incubated for 16 hrs by broth microdilution method; type: functional
Staphylococcus aureus [7] = test: Antibacterial activity against methicillin-resistant Staphylococcus aureus 1862 assessed as bacterial growth inhibition incubated for 16 hrs by broth microdilution method; type: functional
MCF7 = test: as §1; type: toxicity, cell-based; conditions: mcf7
HepG2 = test: as §2; type: toxicity, cell-based; conditions: hepg2

Compound	MIC (Staphylococcus aureus [1]) [µg/mL]	MIC (Acinetobacter baumannii) [µg/mL]	MIC (Bacillus subtilis) [µg/mL]	IC50 [2] [µM]	MIC (Staphylococcus aureus [3]) [µg/mL]	IC50 [4] [µM]	MIC (Vibrio alginolyticus) [µg/mL]	MIC (Staphylococcus aureus [5]) [µg/mL]	MIC (Staphylococcus aureus [6]) [µg/mL]	MIC (Staphylococcus aureus [7]) [µg/mL]	Activity (MCF7)	Activity (HepG2)
CCC[C@@H]1Cc2cc3c(c(O)c2C(=O)O1)-c1c(c(OC)c2oc4ccc(O[C@H]5C[C@@H](O)[C@H](O[C@H]6C[C@@H](O)[C@H](O[C@H]7C[C@@H](OC)[C@H](O)[C@@H](C)O7)[C@@H](C)O6)[C@@H](C)O5)c(O)c4c(=O)c2c1O)C[C@H]3O	0.125 (≈ 0.135 µM)	> 64	> 64	0.12	0.5 (≈ 0.541 µM)	0.25	> 64	0.5 (≈ 0.541 µM)	0.125 (≈ 0.135 µM)	0.125 (≈ 0.135 µM)	–	–
CCC[C@@H]1Cc2cc3c(c(O)c2C(=O)O1)-c1c(c(OC)c2oc4ccc(O[C@H]5C[C@@H](O)[C@H](O[C@H]6C[C@@H](O)[C@H](O[C@H]7C[C@@H](O)[C@H](O)[C@@H](C)O7)[C@@H](C)O6)[C@@H](C)O5)c(O)c4c(=O)c2c1O)[C@H](O)[C@H]3O	2 (≈ 2.16 µM)	> 64	1 (≈ 1.08 µM)	1.8	2 (≈ 2.16 µM)	4.4	> 64	2 (≈ 2.16 µM)	2 (≈ 2.16 µM)	1 (≈ 1.08 µM)	–	–
CCCC(=O)Cc1cc2c(c(O)c1C(=O)O)-c1cc3c(c(O)c1CC2)C(=O)c1c(O)cc(O)cc1C3=O	16 (≈ 31.8 µM)	> 64	> 64	–	16 (≈ 31.8 µM)	–	> 64	16 (≈ 31.8 µM)	32 (≈ 63.7 µM)	16 (≈ 31.8 µM)	Non-Toxic	Non-Toxic
CCC[C@@H]1Cc2cc3c(c(O)c2C(=O)O1)-c1c(c(OC)c2oc4ccc(O[C@H]5C[C@@H](O)[C@H](O)[C@@H](C)O5)c(O)c4c(=O)c2c1O)[C@H](O)[C@H]3O	0.5 (≈ 0.75 µM)	> 64	4 (≈ 6 µM)	0.76	2 (≈ 3 µM)	31	> 64	2 (≈ 3 µM)	0.5 (≈ 0.75 µM)	1 (≈ 1.5 µM)	–	–
CCC[C@@H]1Cc2cc3c(c(O)c2C(=O)O1)-c1c(c(OC)c2oc4ccc(O)c(O)c4c(=O)c2c1O)[C@H](O)[C@H]3O	8 (≈ 14.9 µM)	64 (≈ 119 µM)	16 (≈ 29.8 µM)	0.46	8 (≈ 14.9 µM)	13	32 (≈ 59.6 µM)	8 (≈ 14.9 µM)	8 (≈ 14.9 µM)	4 (≈ 7.46 µM)	–	–
CCC[C@@H]1Cc2cc3c(c(O)c2C(=O)O1)-c1c(c(OC)c2oc4ccc(O[C@H]5C[C@@H](O)[C@H](O[C@H]6C[C@@H](O)[C@H](O[C@H]7C[C@@H](OC)[C@H](O)[C@@H](C)O7)[C@@H](C)O6)[C@@H](C)O5)c(O)c4c(=O)c2c1O)[C@H](O)[C@H]3O	2 (≈ 2.13 µM)	> 64	0.125 (≈ 0.133 µM)	4.1	2 (≈ 2.13 µM)	7.9	> 64	1 (≈ 1.06 µM)	2 (≈ 2.13 µM)	1 (≈ 1.06 µM)	–	–
O=C(O)c1cn(C2CC2)c2cc(N3CCNCC3)c(F)cc2c1=O [CIPROFLOXACIN]	–	0.125 (≈ 0.377 µM)	–	–	–	–	0.125 (≈ 0.377 µM)	–	–	–	–	–
COc1cccc2c1C(=O)c1c(O)c3c(c(O)c1C2=O)C[C@@](O)(C(=O)CO)C[C@@H]3O[C@H]1C[C@H](N)[C@H](O)[C@H](C)O1 [DOXORUBICIN HYDROCHLORIDE]	–	–	–	–	–	3.1	–	–	–	–	–	–
CN[C@H](CC(C)C)C(=O)N[C@H]1C(=O)N[C@@H](CC(N)=O)C(=O)N[C@H]2C(=O)N[C@H]3C(=O)N[C@H](C(=O)N[C@H](C(=O)O)c4cc(O)cc(O)c4-c4cc3ccc4O)[C@H](O)c3ccc(c(Cl)c3)Oc3cc2cc(c3O[C@@H]2O[C@H](CO)[C@@H](O)[C@H](O)[C@H]2O[C@H]2C[C@](C)(N)[C@H](O)[C@H](C)O2)Oc2ccc(cc2Cl)[C@H]1O [VANCOMYCIN]	–	–	0.25 (≈ 0.173 µM)	–	–	–	–	–	–	–	–	–
